Data reported in patent US11964984B2, “TXNIP-TRX complex inhibitors and methods of using the same” (CITY OF HOPE, priority 2020, dated 2024).

Legend:
TXNIP mRNA [1] = test: TXNIP mRNA expression in murine RAW macrophages (RT-PCR); format: cell-based, mouse; details: RAW264.7 cells, 25 mM glucose, 72 hours
Procedure: (§1) FIGS. 3A-3B. FIG. 3A: C30 and C38 inhibited TXNIP mRNA expression in murine RAW macrophages. RAW cells were cultured under 25 mM glucose with various concentration of C30 and C38 as indicated for 72 hours. Total RNA was prepared. RT-PCR was performed and data shown are the mean±SEM from triplicates. Statistical analysis was performed for each column vs. high glucose (HG) DMSO using one-way ANOVA: *p<0.0001. FIG. 3B: Treatment with C30 and C38 decreased TNF-α mRNA expression in murine RAW macrophages. RAW cells were cultured under 25 mM glucose with various concentration of C30 and C38 as indicated for 72 hours. Total RNA was prepared. RT-PCR was performed and data shown are the mean±SEM from triplicates. Statistical analysis was performed for each column vs. HG DMSO using one-way ANOVA: *p<0.0001.
(§2) Treatment of murine RAW macrophages with lead compounds C30 and C38 decreased TXNIP and TNF-α. We have also tested the effects of the lead compound in murine RAW264.7 (RAW) macrophages. As in human THP1 cells, C30 and C38 inhibited TXNIP and TNF-α mRNA expression in mouse RAW cells (FIGS. 3A-3B) showing they are also effective in mouse cells. […]
(§3) RNA extraction and quantitative RT-PCR. […] Diluted cDNA was quantified using real-time PCR performed with Power SYBR Green qPCR MasterMix (Applied Biosystem) and 7500 real-time PCR system (Applied Biosystems). […]

TNF-α mRNA = TNF-α mRNA expression in murine RAW macrophages (RT-PCR); format: cell-based, mouse; details: RAW264.7 cells, 25 mM glucose, 72 hours
Procedure: as §1, §2, §3

[2] = Body weight after maximum dose regime (90 mg/kg) in mice; format: in vivo; details: 90 mg/kg oral gavage daily for 5 days, euthanasia 96 hr after last dose
Procedure: FIG. 15. Murine weight change after maximum dose regime (90 mg/kg).
The effects of compounds C30 and C38 at single high dose of 90 mg/kg. Twelve male mice were divided into three groups: 1) Control group (4 mice), 2) compound C30 (4 mice) and 3) compound C38 (4 mice). By oral gavage, animals were given 90 mg/kg of agent daily for 5 consecutive days (vehicle: 30% Solutol in saline). Mice were weighed every day during the treatment period. They were humanely euthanized 96 hours after the last dose. Tissues including the pancreas, liver and kidneys were collected (snap frozen in liquid nitrogen) for RNA extraction. […] Those given compound C30 lost ˜5% of body weight (FIG. 15).

TXNIP mRNA [3] = test: TXNIP mRNA in primary human pancreatic islets under 25 mM glucose (RT-PCR); format: cell-based; details: human pancreatic islets (500 IEQ), 2.5 uM, 48 h
Procedure: FIGS. 12A-12B. […] Human pancreatic islets (500 IEQ) were cultured with PIM(R) (Prodo Labs) medium under 25 mM glucose with 2.5 uM of the indicated compounds for 48 h. Total RNA was collected. RT-PCR was performed in triplicate and data shown are the mean±SEM. Statistical analysis was performed using one-way ANOVA: *p<0.0001. […] Human pancreatic islets (500 IEQ) were cultured with PIM(R) (Prodo Labs) under 25 mM glucose with 2.5 uM of the indicated compounds for 48 h. Total RNA was collected. RT-PCR was performed in triplicate and data shown are the mean+SEM. Statistical analysis was performed using one-way ANOVA: *p<0.0001.
Testing lead compounds in human pancreatic islets. To further explore the effects of the lead compounds as possible therapies in diabetes, we conducted translational studies in primary human pancreatic islets (obtained from the City of Hope islet isolation center).
RNA extraction and quantitative RT-PCR. RNA was extracted using the Direct-zol™ RNA MiniPrep Plus (Zymo Research). […] Diluted cDNA was quantified using real-time PCR performed with Power SYBR Green qPCR MasterMix (Applied Biosystem) and 7500 real-time PCR system (Applied Biosystems). […]

SMILES | TXNIP mRNA expression (TXNIP mRNA [1]) | TNF-α mRNA expression (TNF-α mRNA) | loss of body weight [2] [%] | TXNIP mRNA (TXNIP mRNA [3]) | weight loss [2]
COc1cc(N2CC[C@@H](c3ccc4ccccc4c3)[C@H](O)C2)nc(N)n1 [Compound C30] | inhibited | inhibited | ~5 | target TXNIP mRNA | –
c1ccc(CCNc2ncnc3c2oc2ccccc23)cc1 [Compound C38] | inhibited | inhibited | – | target TXNIP mRNA | no significant weight loss
